Measurements reported in the NIST ThermoML archive (doi:10.1021/je700406p).

Assay: wn = mass fraction of the nth substance listed
Settings: Liquid, Vibrating tube method

CC(C)(N)CO [2-amino-2-methylpropan-1-ol] + O
Settings	mass density [kg/m3]
352.85 K, 12992 kPa, w1 = 0.2821	967.1
352.85 K, 13990 kPa, w1 = 0.2821	967.5
352.85 K, 14990 kPa, w1 = 0.2821	968
352.85 K, 15988 kPa, w1 = 0.2821	968.4
352.85 K, 16991 kPa, w1 = 0.2821	968.8
352.85 K, 17991 kPa, w1 = 0.2821	969.2
352.85 K, 18988 kPa, w1 = 0.2821	969.6
352.85 K, 19987 kPa, w1 = 0.2821	970.1
352.85 K, 20985 kPa, w1 = 0.2821	970.5
352.86 K, 500 kPa, w1 = 0.1997	965
352.86 K, 1000 kPa, w1 = 0.1997	965.2
352.86 K, 2000 kPa, w1 = 0.1997	965.7
352.86 K, 3000 kPa, w1 = 0.1997	966.2
352.86 K, 4000 kPa, w1 = 0.1997	966.5
352.86 K, 5000 kPa, w1 = 0.1997	966.9
352.86 K, 6000 kPa, w1 = 0.1997	967.3
352.86 K, 7000 kPa, w1 = 0.1997	967.8
352.86 K, 8000 kPa, w1 = 0.1997	968.2
352.86 K, 9009 kPa, w1 = 0.1997	968.6
352.86 K, 10002 kPa, w1 = 0.1997	969.1
352.86 K, 11001 kPa, w1 = 0.1997	969.5
352.86 K, 12000 kPa, w1 = 0.1997	970
352.86 K, 13000 kPa, w1 = 0.1997	970.4
352.86 K, 14000 kPa, w1 = 0.1997	970.8
352.86 K, 15003 kPa, w1 = 0.1997	971.2
352.86 K, 16001 kPa, w1 = 0.1997	971.6
352.86 K, 17001 kPa, w1 = 0.1997	972.1
352.86 K, 18002 kPa, w1 = 0.1997	972.5
352.86 K, 19001 kPa, w1 = 0.1997	972.9
352.86 K, 20029 kPa, w1 = 0.1997	973.3
352.86 K, 21004 kPa, w1 = 0.1997	973.8
352.86 K, 22004 kPa, w1 = 0.1997	974.1
352.86 K, 23000 kPa, w1 = 0.1997	974.5
352.86 K, 24004 kPa, w1 = 0.1997	975
352.87 K, 1039 kPa, w1 = 0.4976	945
352.87 K, 2018 kPa, w1 = 0.4976	945.5
352.87 K, 3005 kPa, w1 = 0.4976	946
352.87 K, 4018 kPa, w1 = 0.4976	946.5
352.87 K, 5000 kPa, w1 = 0.4976	946.9
352.87 K, 5997 kPa, w1 = 0.4976	947.4
352.87 K, 7007 kPa, w1 = 0.4976	947.9
352.87 K, 7999 kPa, w1 = 0.4976	948.4
352.87 K, 8994 kPa, w1 = 0.4976	948.9
352.87 K, 9996 kPa, w1 = 0.4976	949.4
352.87 K, 10996 kPa, w1 = 0.4976	949.8
352.87 K, 12002 kPa, w1 = 0.4976	950.3
352.87 K, 13000 kPa, w1 = 0.4976	950.8
352.87 K, 13993 kPa, w1 = 0.4976	951.2
352.87 K, 15004 kPa, w1 = 0.4976	951.7
352.87 K, 16002 kPa, w1 = 0.4976	952.2
352.87 K, 16989 kPa, w1 = 0.4976	952.6
352.87 K, 18011 kPa, w1 = 0.4976	953.1
352.87 K, 18989 kPa, w1 = 0.4976	953.5
352.87 K, 20010 kPa, w1 = 0.4976	954
352.87 K, 20989 kPa, w1 = 0.4976	954.4
362.73 K, 999 kPa, w1 = 0.2821	954.1
362.73 K, 1015 kPa, w1 = 0.4976	936.3
362.73 K, 1999 kPa, w1 = 0.2821	954.5
362.73 K, 2010 kPa, w1 = 0.4976	936.7
362.73 K, 2998 kPa, w1 = 0.2821	955.1
362.73 K, 3022 kPa, w1 = 0.4976	937.3
362.73 K, 3996 kPa, w1 = 0.2821	955.4
362.73 K, 3997 kPa, w1 = 0.4976	937.8
362.73 K, 4996 kPa, w1 = 0.2821	955.9
362.73 K, 5010 kPa, w1 = 0.4976	938.3
362.73 K, 5993 kPa, w1 = 0.2821	956.3
362.73 K, 6002 kPa, w1 = 0.4976	938.8
362.73 K, 6993 kPa, w1 = 0.2821	956.8
362.73 K, 6999 kPa, w1 = 0.4976	939.3
362.73 K, 7992 kPa, w1 = 0.4976	939.8
362.73 K, 8006 kPa, w1 = 0.2821	957.3
362.73 K, 8992 kPa, w1 = 0.2821	957.7
362.73 K, 8997 kPa, w1 = 0.4976	940.3
362.73 K, 9994 kPa, w1 = 0.2821	958.1
362.73 K, 10028 kPa, w1 = 0.4976	940.9
362.73 K, 10990 kPa, w1 = 0.4976	941.3
362.73 K, 10992 kPa, w1 = 0.2821	958.6
362.73 K, 11992 kPa, w1 = 0.2821	959.1
362.73 K, 11996 kPa, w1 = 0.4976	941.8
362.73 K, 12991 kPa, w1 = 0.2821	959.5
362.73 K, 13002 kPa, w1 = 0.4976	942.3
362.73 K, 13992 kPa, w1 = 0.2821	959.9
362.73 K, 13994 kPa, w1 = 0.4976	942.8
362.73 K, 14986 kPa, w1 = 0.4976	943.3
362.73 K, 14988 kPa, w1 = 0.2821	960.4
362.73 K, 15987 kPa, w1 = 0.2821	960.8
362.73 K, 15995 kPa, w1 = 0.4976	943.8
362.73 K, 16985 kPa, w1 = 0.4976	944.3
362.73 K, 16990 kPa, w1 = 0.2821	961.3
362.73 K, 18007 kPa, w1 = 0.4976	944.8
362.73 K, 18019 kPa, w1 = 0.2821	961.7
362.73 K, 18985 kPa, w1 = 0.2821	962.1
362.73 K, 18989 kPa, w1 = 0.4976	945.2
362.73 K, 19985 kPa, w1 = 0.2821	962.6
362.73 K, 19988 kPa, w1 = 0.4976	945.7
362.73 K, 21004 kPa, w1 = 0.4976	946.2
362.74 K, 532 kPa, w1 = 0.1997	957.9
362.74 K, 1001 kPa, w1 = 0.1997	958
362.74 K, 1014 kPa, w1 = 0.4002	946.1
362.74 K, 1992 kPa, w1 = 0.4002	946.6
362.74 K, 2000 kPa, w1 = 0.1997	958.5
362.74 K, 3000 kPa, w1 = 0.1997	959
362.74 K, 3010 kPa, w1 = 0.4002	947.1
362.74 K, 4000 kPa, w1 = 0.1997	959.4
362.74 K, 4009 kPa, w1 = 0.4002	947.5
362.74 K, 5000 kPa, w1 = 0.1997	960.1
362.74 K, 5001 kPa, w1 = 0.4002	948
362.74 K, 6000 kPa, w1 = 0.1997	960.4
362.74 K, 6003 kPa, w1 = 0.4002	948.5
362.74 K, 6999 kPa, w1 = 0.4002	949
362.74 K, 7000 kPa, w1 = 0.1997	960.7
362.74 K, 7990 kPa, w1 = 0.4002	949.4
362.74 K, 8001 kPa, w1 = 0.1997	961.2
362.74 K, 8995 kPa, w1 = 0.4002	949.9
362.74 K, 9009 kPa, w1 = 0.1997	961.6
362.74 K, 10004 kPa, w1 = 0.1997	962.1
362.74 K, 10039 kPa, w1 = 0.4002	950.4
362.74 K, 10986 kPa, w1 = 0.4002	950.8
362.74 K, 11001 kPa, w1 = 0.1997	962.4
362.74 K, 11991 kPa, w1 = 0.4002	951.3
362.74 K, 12999 kPa, w1 = 0.4002	951.8
362.74 K, 13999 kPa, w1 = 0.4002	952.2
362.74 K, 14990 kPa, w1 = 0.4002	952.7
362.74 K, 15993 kPa, w1 = 0.4002	953.2
362.74 K, 16984 kPa, w1 = 0.4002	953.6
362.74 K, 18005 kPa, w1 = 0.4002	954.1
362.74 K, 18993 kPa, w1 = 0.4002	954.5
362.74 K, 19978 kPa, w1 = 0.4002	955
362.74 K, 21014 kPa, w1 = 0.4002	955.4
